Series [1] in a line: High throughput shake flask (HTSF) solubility at pH 7.4. The series is classed as physicochemical. The following applies: aqueous buffer, kinetic from dmso stock; pH 7.4 phosphate buffer with 2% DMSO, shaken overnight. The method, then: A high throughput shake flask assay was used to determine solubility of compounds in pH 7.4 buffer. To calculate the concentration of compounds in solution, two conditions per compound were run: 300 uM in 100% DMSO and 200 uM in pH 7.4 phosphate buffer with 2% DMSO present. Each sample was left to shake overnight then injected onto HPLC-UV to determine peak area using the following conditions: Phenomenex 00A-4251-B0-30×2.00 mm Luna 3u C18(2) 100A column; 0.8 mL/min flow rate; 20 uL injection volume; HPLC grade water with 0.1% formic acid and HPLC grade acetonitrile with 0.1% formic acid mobile phases; peak area determined at 254 nm. Solubility in uM was calculated using the following equation: conc.=(peak area pH 7.4)/(peak area 300 uM DMSO standard condition)*300 uM concentration of standard condition. Peaks of interest were identified in buffer conditions based on retention time (RT) of the largest area peak in the 300 uM DMSO standard condition.

Series [2] concerns the target T1, ΔF508-CFTR in NIH 3T3 cells (Homo sapiens, UniProt P13569, DEL508-508).
T1 construct: expressed in transfected cells
Description: Membrane potential optical potentiator assay (FLIPR III). The series is classed as cell-based. Particulars: temperature-corrected ΔF508 CFTR NIH 3T3 cells, forskolin. An excerpt:
The assay utilizes fluorescent voltage sensing dyes to measure changes in membrane potential using a fluorescent plate reader (e.g., FLIPR III, Molecular Devices, Inc.) as a readout for increase in functional ΔF508-CFTR in NIH 3T3 cells. The driving force for the response is the creation of a chloride ion gradient in conjunction with channel activation by a single liquid addition step after the cells have previously been treated with compounds and subsequently loaded with a voltage sensing dye.
To identify potentiators of ΔF508-CFTR, a double-addition HTS assay format was developed. This HTS assay utilizes fluorescent voltage sensing dyes to measure changes in membrane potential on the FLIPR III as a measurement for increase in gating (conductance) of ΔF508 CFTR in temperature-corrected ΔF508 CFTR NIH 3T3 cells. The driving force for the response is a Cl^− ion gradient in conjunction with channel activation with forskolin in a single liquid addition step using a fluorescent plate reader such as FLIPR III after the cells have previously been treated with potentiator compounds (or DMSO vehicle control) and subsequently loaded with a redistribution dye.
Solutions • Bath Solution #1: (in mM) NaCl 160, KCl 4.5, CaCl2 2, MgCl2 1, HEPES 10, pH 7.4 with NaOH. • Chloride-free bath solution: Chloride salts in Bath Solution #1 are substituted with gluconate salts. […]

The target in series [3] is T2, ΔF508-CFTR in HBE (Homo sapiens, UniProt P13569, DEL508-508).
T2 construct: CF-HBE were isolated from patients homozygous for ΔF508-CFTR; endogenous in cells; host or cells: primary bronchial epithelial cells (HBE) from CF patients homozygous for ΔF508
T2 sequence (P13569 with tags, fused parts or gaps DEL508-508): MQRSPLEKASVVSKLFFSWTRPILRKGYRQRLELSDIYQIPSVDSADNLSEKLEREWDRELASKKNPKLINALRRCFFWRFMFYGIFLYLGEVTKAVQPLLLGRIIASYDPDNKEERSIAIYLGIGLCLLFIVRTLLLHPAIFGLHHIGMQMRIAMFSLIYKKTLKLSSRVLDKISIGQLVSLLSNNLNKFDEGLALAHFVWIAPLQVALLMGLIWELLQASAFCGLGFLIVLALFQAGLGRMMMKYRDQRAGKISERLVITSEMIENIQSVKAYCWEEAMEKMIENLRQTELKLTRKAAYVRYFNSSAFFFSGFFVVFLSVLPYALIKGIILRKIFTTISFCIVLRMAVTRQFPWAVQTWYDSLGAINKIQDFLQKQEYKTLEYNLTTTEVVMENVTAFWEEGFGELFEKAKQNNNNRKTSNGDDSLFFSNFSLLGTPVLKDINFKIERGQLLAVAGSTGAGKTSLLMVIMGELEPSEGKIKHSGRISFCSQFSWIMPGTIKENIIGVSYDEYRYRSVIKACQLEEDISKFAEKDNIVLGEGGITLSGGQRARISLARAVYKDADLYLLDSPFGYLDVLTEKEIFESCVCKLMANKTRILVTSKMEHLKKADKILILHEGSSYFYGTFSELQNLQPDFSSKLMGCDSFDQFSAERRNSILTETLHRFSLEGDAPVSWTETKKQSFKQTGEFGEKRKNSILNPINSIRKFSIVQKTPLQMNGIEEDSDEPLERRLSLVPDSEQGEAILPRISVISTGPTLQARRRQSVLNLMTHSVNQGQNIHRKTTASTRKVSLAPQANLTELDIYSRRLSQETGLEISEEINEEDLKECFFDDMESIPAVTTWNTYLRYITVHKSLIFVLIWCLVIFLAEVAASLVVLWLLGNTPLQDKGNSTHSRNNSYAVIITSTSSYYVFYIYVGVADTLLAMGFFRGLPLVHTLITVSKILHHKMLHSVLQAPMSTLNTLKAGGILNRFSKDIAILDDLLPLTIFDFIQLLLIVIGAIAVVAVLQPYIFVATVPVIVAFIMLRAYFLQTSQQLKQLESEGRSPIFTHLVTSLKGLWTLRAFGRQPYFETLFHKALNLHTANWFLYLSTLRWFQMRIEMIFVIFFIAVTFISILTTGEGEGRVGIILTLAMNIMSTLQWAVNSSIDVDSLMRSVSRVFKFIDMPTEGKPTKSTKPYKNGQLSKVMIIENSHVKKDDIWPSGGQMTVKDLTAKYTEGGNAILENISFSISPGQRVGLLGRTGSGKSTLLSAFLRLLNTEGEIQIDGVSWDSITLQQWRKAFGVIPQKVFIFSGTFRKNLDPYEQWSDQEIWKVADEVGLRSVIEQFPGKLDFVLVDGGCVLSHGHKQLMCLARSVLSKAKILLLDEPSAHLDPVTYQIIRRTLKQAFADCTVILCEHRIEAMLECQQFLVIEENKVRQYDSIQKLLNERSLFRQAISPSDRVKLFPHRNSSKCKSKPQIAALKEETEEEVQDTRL
Description: Ussing chamber assay, Δ508-HBE. The series is classed as cell-based. The following applies: HBE from patients homozygous for ΔF508-CFTR. The method, then: Ussing chamber experiments were performed on polarized airway epithelial cells expressing ΔF508-CFTR to further characterize the ΔF508-CFTR modulators identified in the optical assays. Non-CF and CF airway epithelia were isolated from bronchial tissue, cultured as previously described (Galietta, L. J. V., Lantero, S., Gazzolo, A., Sacco, O., Romano, L., Rossi, G. A., & Zegarra-Moran, O. (1998) In Vitro Cell. Dev. Biol. 34, 478-481), and plated onto Costar® Snapwell™ filters that were pre-coated with NIH3T3-conditioned media. After four days the apical media was removed and the cells were grown at an air liquid interface for >14 days prior to use. […] CF-HBE were isolated from patients homozygous for ΔF508-CFTR.
HBE grown on Costar® Snapwell™ cell culture inserts were mounted in an Ussing chamber (Physiologic Instruments, Inc., San Diego, Calif.), and the transepithelial resistance and short-circuit current in the presence of a basolateral to apical Cl^− gradient (ISC) were measured using a voltage-clamp system (Department of Bioengineering, University of Iowa, Iowa). Briefly, HBE were examined under voltage-clamp recording conditions (Vhold=0 mV) at 37° C. […]

Series [4] deals with Δ508/G551D-HBE (Homo sapiens, UniProt P13569, G551D). In words: Ussing chamber assay, Δ508/G551D-HBE. Type of series: cell-based.
Chain of Δ508/G551D-HBE (P13569 whole entry G551D, stated change not applied): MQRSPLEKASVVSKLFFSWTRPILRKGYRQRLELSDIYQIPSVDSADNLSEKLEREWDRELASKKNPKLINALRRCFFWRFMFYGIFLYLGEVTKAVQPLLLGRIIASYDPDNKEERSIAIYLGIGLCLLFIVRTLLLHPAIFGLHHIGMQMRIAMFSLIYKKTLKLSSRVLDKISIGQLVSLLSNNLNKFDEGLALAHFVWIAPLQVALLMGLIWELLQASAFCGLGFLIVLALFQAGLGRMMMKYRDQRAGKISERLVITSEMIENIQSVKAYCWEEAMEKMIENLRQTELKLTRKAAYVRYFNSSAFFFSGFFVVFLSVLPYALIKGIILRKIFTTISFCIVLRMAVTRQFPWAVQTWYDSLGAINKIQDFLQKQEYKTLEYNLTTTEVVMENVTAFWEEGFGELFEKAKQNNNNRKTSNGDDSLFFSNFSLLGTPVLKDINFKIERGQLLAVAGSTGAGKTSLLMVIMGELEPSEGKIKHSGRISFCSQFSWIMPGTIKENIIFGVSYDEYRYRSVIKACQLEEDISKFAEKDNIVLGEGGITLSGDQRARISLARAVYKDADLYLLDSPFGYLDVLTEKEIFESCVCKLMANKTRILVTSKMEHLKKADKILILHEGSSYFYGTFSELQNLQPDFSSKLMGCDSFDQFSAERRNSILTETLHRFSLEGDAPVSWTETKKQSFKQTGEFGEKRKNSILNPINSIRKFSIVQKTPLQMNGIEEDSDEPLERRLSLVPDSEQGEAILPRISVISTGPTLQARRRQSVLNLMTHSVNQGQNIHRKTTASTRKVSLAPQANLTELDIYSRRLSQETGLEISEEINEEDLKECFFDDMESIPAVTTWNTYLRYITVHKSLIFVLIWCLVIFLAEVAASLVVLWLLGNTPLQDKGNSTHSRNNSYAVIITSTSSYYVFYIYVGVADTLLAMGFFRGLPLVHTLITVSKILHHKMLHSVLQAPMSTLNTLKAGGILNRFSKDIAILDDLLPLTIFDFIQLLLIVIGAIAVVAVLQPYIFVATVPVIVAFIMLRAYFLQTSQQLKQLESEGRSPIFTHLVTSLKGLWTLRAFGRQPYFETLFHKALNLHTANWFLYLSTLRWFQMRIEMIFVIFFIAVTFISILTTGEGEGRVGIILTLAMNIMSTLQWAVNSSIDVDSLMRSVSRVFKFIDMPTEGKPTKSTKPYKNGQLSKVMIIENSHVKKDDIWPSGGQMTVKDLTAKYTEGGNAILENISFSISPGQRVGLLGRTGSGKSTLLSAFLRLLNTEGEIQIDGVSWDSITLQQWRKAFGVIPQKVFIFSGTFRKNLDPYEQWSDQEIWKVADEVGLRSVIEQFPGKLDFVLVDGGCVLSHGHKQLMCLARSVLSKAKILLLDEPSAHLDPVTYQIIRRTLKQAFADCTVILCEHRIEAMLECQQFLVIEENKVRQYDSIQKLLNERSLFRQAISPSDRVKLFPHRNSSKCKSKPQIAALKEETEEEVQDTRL
Chain of Δ508/G551D-HBE (P13569 whole entry G551D, stated change not applied): as above
Series [5] in a line: HLM/RLM stability, % remaining at 30 min. The series is classed as in vitro ADME.
In series [6] the target is CaV 1.2 (Homo sapiens, UniProt Q13936). Description: CaV 1.2 inhibition.

In brackets after ≈: the same amount, converted by molar mass.

For orientation: solubility means how much of the substance goes into solution per volume. Lower therefore signals little dissolved substance. The EC50 is the concentration giving half of the maximal effect. In general, IC50 refers to the concentration that gives 50% inhibition. A lower IC50 goes with inhibition by little substance.

T1 sequence (P13569 with tags, fused parts or gaps DEL508-508): as the sequence (P13569 with tags, fused parts or gaps DEL508-508) above

On to `CC(C)(C)c1cc(C(C)(C)CO)c(O)cc1NC(=O)c1c[nH]c2ccccc2c1=O` [Compound 27, N-(2-tert-butyl-5-hydroxy-4-(1-hydroxy-2-methylpropan-2-yl)phenyl)-4-oxo-1,4-dihydroquinoline-3-carboxamide], for which the solubility in series [1] came to 87 µM (≈ 35.5 µg/mL). The EC50 in series [2], in series [3] and in series [4] was less than 2000 nM each time. The “HLM/RLM (% remain. @ 30 min)” value in series [5] is “++ (“++” if efficacy was calculated to be from 100% to 25%)”. Besides, the IC50 in series [6] was greater than 5 µM.
In series [1], `CC(C)(C)c1cc(C(C)(C)C(=O)O)c(O)cc1NC(=O)c1c[nH]c2ccccc2c1=O` [Compound 28, 2-(5-tert-butyl-2-hydroxy-4-(4-oxo-1,4-dihydroquinoline-3-carboxamido)phenyl)-2-methylpropanoic acid] gave a solubility greater than 200 µM. Moreover, the EC50 in series [2] is 2000 to 5000 nM; in series [3], less than 2000 nM; in series [4] it was 2000 to 5000 nM. Also, in series [5], the “HLM/RLM (% remain. @ 30 min)” value is reported as “+++ (“+++” if efficacy was calculated to be greater than 100%)”.

For the origin of these results see patent US8796308B2, “Modulators of cystic fibrosis transmembrane conductance regulator” (Vertex Pharmaceuticals Incorporated, priority 2009, dated 2014).
